We go through 32 compounds from patent US20190211002A1, “NOVEL TRIAZOLE DERIVATIVES” (Bayer CropScience Aktiengesellschaft, priority 2016, published 2019).

Data set [1] can be described thus: LogP by HPLC on reversed phase columns (EEC directive 79/831 Annex V.A8). Format: physicochemical. The settings on record: method [a]: LC-UV, acidic range, 0.1% formic acid in water and acetonitrile as eluent; for chromatographic logP: reversed phase HPLC column. Here is the method: Measurement of LogP values was performed according to EEC directive 79/831 Annex V.A8 by HPLC (High Performance Liquid Chromatography) on reversed phase columns with the following methods: • ^[a] […] Lambda-max-values were determined using UV-spectra from 200 nm to 400 nm and the peak values of the chromatographic signals.

Data set [2] relates to Blumeria graminis f sp. hordei. In words: Example E: in vivo preventive Blumeria test (barley). The settings on record: 168 h, 500 ppm of active ingredient, preventive spray, evaluated 7 days after inoculation, read-out: efficacy. As for the experimental part: • Solvent: 49 parts by weight of N,N-dimethylacetamide • Emulsifier: 1 part by weight of alkylaryl polyglycol ether To produce a suitable preparation of active compound, 1 part by weight of active compound or active compound combination was mixed with the stated amounts of solvent and emulsifier, and the concentrate was diluted with water to the desired concentration. To test for preventive activity, young plants were sprayed with the preparation of active compound or active compound combination at the stated rate of application. After the spray coating had been dried, the plants were dusted with spores of Blumeria graminis f sp. hordei. The plants were placed in the greenhouse at a temperature of approximately 18° C. and a relative atmospheric humidity of approximately 80% to promote the development of mildew pustules. The test was evaluated 7 days after the inoculation.

Data set [3] relates to Puccinia recondita. Description: Example A: in vivo preventive test on Puccinia recondita (brown rust on wheat). The following applies: 264 h, 500 ppm of active ingredient, preventive spray, evaluated 11 days after inoculation, read-out: efficacy. As for the experimental part:
(§1) The test is evaluated 11 days after the inoculation.

The subject of data set [4] is Uromyces appendiculatus. In words: Example D: in vivo preventive test on Uromyces appendiculatus (bean rust). The following applies: 264 h, 500 ppm of active ingredient, preventive spray, evaluated 11 days after inoculation, read-out: efficacy. As for the experimental part:
as §1

The subject of data set [5] is Sphaerotheca fuliginea. Description: Example C: in vivo preventive test on Sphaerotheca fuliginea (powdery mildew on cucurbits). The settings on record: Podosphaera fuliginea, 360 h; 500 ppm of active ingredient; gherkin; preventive spray; evaluated 15 days after inoculation; read-out: efficacy. Here is the method:
The test is evaluated 15 days after the inoculation.

Data set [6] has as its system Septoria tritici. In words: Example G: in vivo 5 days preventive Septoria tritici test (wheat), comparison vs. WO-A 2010/146116. The following applies: inoculated 5 days after spraying, evaluated 21 days after inoculation. Here is the method:
• Solvent: 49 parts by weight of N,N-dimethylacetamide • Emulsifier: 1 part by weight of alkylaryl polyglycol ether To produce a suitable preparation of active compound, 1 part by weight of active compound or active compound combination is mixed with the stated amounts of solvent and emulsifier, and the concentrate is diluted with water to the desired concentration. To test for preventive and long-lasting activity, young plants are sprayed with a preparation of active compound or active compound combination at the stated rate of application. After the spray coating has been dried, the plants are placed in the greenhouse at a temperature of approximately 15° C. and a relative atmospheric humidity of approximately 80%. 5 days later the plants are sprayed with a spore suspension of Septoria tritici. The plants remain for 48 hours in an incubation cabinet at approximately 20° C. and a relative atmospheric humidity of approximately 100% and afterwards for 60 hours at approximately 15° C. in a translucent incubation cabinet at a relative atmospheric humidity of approximately 100%. Then the plants are placed in the greenhouse at a temperature of approximately 15° C. and a relative atmospheric humidity of approximately 80%. The test is evaluated 21 days after the inoculation.

Data set [7] relates to Sphaerotheca fuliginea. In words: Example H: in vivo preventive test on Sphaerotheca (cucumbers), comparison vs. WO-A 2010/146116. The settings on record: evaluated 7 days after inoculation. As for the experimental part: To produce a suitable preparation of active compound, 1 part by weight of active compound is mixed with the stated amounts of solvent and emulsifier, and the concentrate is diluted with water to the desired concentration. To test for preventive activity, young plants are sprayed with the preparation of active compound at the stated rate of application. After the spray coating has dried on, the plants are inoculated with an aqueous spore suspension of Sphaerotheca fuliginea. The plants are then placed in a greenhouse at approximately 23° C. and a relative atmospheric humidity of approximately 70%. The test is evaluated 7 days after the inoculation.

In general, LogP refers to a log measure of how a compound divides between an organic and an aqueous phase. Low values mean lower lipophilicity, high ones higher lipophilicity. Take `CCC1COC(Cn2cncn2)(c2ccc(Oc3ccc(S(F)(F)(F)(F)F)cc3)nc2C(F)(F)F)O1` (mixture of isomers) [I.01]: the log partition coefficient (LogP) in data set [1] is 4.15^[a].

Consider `CC1COC(Cn2cncn2)(c2ccc(Oc3ccc(Cl)cc3)nc2C(F)(F)F)O1` (mixture of isomers) [I.03], for which the LogP in data set [1] was 3.55^[a].

As for `CCCC1COC(Cn2cncn2)(c2ccc(Oc3ccc(Cl)cc3)nc2C(F)(F)F)O1` (mixture of isomers) [I.05], in data set [1], the LogP was 4.19^[a].

Regarding `CCC1COC(Cn2cncn2)(c2ccc(Oc3ccc(Br)cc3)nc2C(F)(F)F)O1` (mixture of isomers) [I.06], the LogP in data set [1] is 3.94^[a].

`CCCC1COC(Cn2cncn2)(c2ccc(Oc3ccc(Br)cc3)nc2C(F)(F)F)O1` (mixture of isomers) [I.08]: in data set [1], the LogP was 4.32^[a].

`CC1COC(Cn2cncn2)(c2ccc(Oc3ccc(C(F)(F)F)cc3)nc2C(F)(F)F)O1` (mixture of isomers) [I.10]: the LogP in data set [1] was 3.62^[a].

In the case of `CCC1COC(Cn2cncn2)(c2ccc(Oc3ccc(Cl)cc3)nc2C(F)(F)F)O1` (mixture of isomers) [I.15], the LogP in data set [1] was 3.83^[a].

Turning to `CC1OC(Cn2cncn2)(c2ccc(Oc3ccc(Br)cc3)nc2C(F)(F)F)OC1C` (mixture of isomers) [I.17], the LogP in data set [1] was 3.85^[a].

Take `CC1OC(Cn2cncn2)(c2ccc(Oc3ccc(Cl)cc3)nc2C(F)(F)F)OC1C` (mixture of isomers) [I.18]: the LogP in data set [1] is 3.76^[a].

As to `CC1COC(Cn2cncn2)(c2ccc(Oc3ccc(S(F)(F)(F)(F)F)cc3)nc2C(F)(F)F)O1` (mixture of isomers) [I.19], the LogP in data set [1] is 3.85^[a].

Turning to `CC1COC(Cn2cncn2)(c2ccc(Oc3ccc(OC(F)(F)F)cc3)nc2C(F)(F)F)O1` (mixture of isomers) [I.21], the LogP in data set [1] is 3.76 ^[a].

With `CC1COC(Cn2cncn2)(c2ccc(Oc3ccc(Cl)cc3)nc2C(F)(F)F)O1` (racemic) [I.09], the LogP in data set [1] was 3.46^[a].

For `FC(F)(F)c1nc(Oc2ccc(Br)cc2)ccc1C1(Cn2cncn2)OCC(C(F)(F)F)O1` (racemic) [I.23], the LogP in data set [1] is 3.80 ^[a].

On to `FC(F)(F)c1nc(Oc2ccc(Br)cc2)ccc1C1(Cn2cncn2)OCC(C(F)(F)F)O1` (racemic) [I.26], for which the LogP in data set [1] is 2.26 ^[a].

Regarding `CC1COC(Cn2cncn2)(c2ccc(Oc3ccc(Cl)cc3)nc2C(F)(F)F)O1` (single isomer, unassigned) [I.12], the LogP in data set [1] was 3.48^[a].

As for `CC1COC(Cn2cncn2)(c2ccc(Oc3ccc(Cl)cc3)nc2C(F)(F)F)O1` (single isomer, unassigned) [I.13], the LogP in data set [1] is 3.48^[a].

Usually chromatographic logP stands for a lipophilicity value derived from retention on a column. On to `FC(F)(F)c1ccc(Oc2ccc(C3(Cn4nc[nH]c4=S)OCCO3)c(C(F)(F)F)n2)cc1` [I-S.01, 2-[[2-[2-(trifluoromethyl)-6-[4-(trifluoromethyl)phenoxy]-3-pyridyl]-1,3-dioxolan-2-yl]methyl]-4H-1,2,4-triazole-3-thione], for which the pest or weed control at 500 ppm in data set [2], in data set [3], in data set [4] and in data set [5] was 90 to 100% in each case. In data set [1], this compound came in with a chromatographic logP of 3.18.

`FC(F)(F)c1nc(Oc2ccc(Cl)cc2)ccc1C1(Cn2nc[nH]c2=S)OCCO1` [I-S.02, 2-[[2-[6-(4-chlorophenoxy)-2-(trifluoromethyl)-3-pyridyl]-1,3-dioxolan-2-yl]methyl]-4H-1,2,4-triazole-3-thione]: the pest or weed control at 500 ppm in data set [2], in data set [3], in data set [4] and in data set [5] was 90 to 100% throughout. Also, the chromatographic logP in data set [1] was determined as 3.06.

In the case of `Cc1ccc(Oc2ccc(C3(Cn4nc[nH]c4=S)OCCO3)c(C(F)(F)F)n2)cc1` [I-S.03], in data set [1], the LogP is 2.94 ^[a].

In the case of `CSc1ccc(Oc2ccc(C3(Cn4nc[nH]c4=S)OCCO3)c(C(F)(F)F)n2)cc1` [I-S.04], in data set [1], the LogP was 2.95 ^[a].

As for `FC(F)(F)c1nc(Oc2ccc(Br)cc2)ccc1C1(Cn2nc[nH]c2=S)OCCO1` [I-S.05], the LogP in data set [1] is 3.14 ^[a].

For the compound `FC(F)(F)c1nc(Oc2ccc(Br)cc2)ccc1C1(Cn2cncn2)OCCO1` [I.02], the pest or weed control at 500 ppm in data set [2], in data set [3], in data set [4] and in data set [5] was 90 to 100% throughout. The chromatographic logP in data set [1] was determined as 3.35. Moreover, the Efficacy in % in data set [6] (rate of application 100 ppm) was determined as 93%; in data set [6] (rate of application 500 ppm) it was 100%.

Regarding `CCC1COC(Cn2cncn2)(c2ccc(Oc3ccc(C(F)(F)F)cc3)nc2C(F)(F)F)O1` (stereo not drawn) [I.07, 3-[4-ethyl-2-(1,2,4-triazol-1-ylmethyl)-1,3-dioxolan-2-yl]-2-(trifluoromethyl)-6-[4-(trifluoromethyl)phenoxy]pyridine], the pest or weed control at 500 ppm in data set [2], in data set [3], in data set [4] and in data set [5] was 90 to 100% in each case. In data set [1], the chromatographic logP was determined as 3.96.

For the compound `FC(F)(F)c1nc(Oc2ccc(S(F)(F)(F)(F)F)cc2)ccc1C1(Cn2cncn2)OCCO1` [I.11], the pest or weed control at 500 ppm in data set [2] was in the range of 70 to 79%; in data set [3], 90 to 100%; in data set [4], 90 to 100%; in data set [5], 90 to 100%. Further, the chromatographic logP in data set [1] came out at 3.54. The Efficacy in % in data set [6] (rate of application 100 ppm) is on record as 71%; in data set [6] (rate of application 500 ppm) it was 100%.

`CC1COC(Cn2cncn2)(c2ccc(Oc3ccc(Br)cc3)nc2C(F)(F)F)O1` (stereo not drawn) [I.16, 6-(4-bromophenoxy)-3-[4-methyl-2-(1,2,4-triazol-1-ylmethyl)-1,3-dioxolan-2-yl]-2-(trifluoromethyl)pyridine]: the pest or weed control at 500 ppm in data set [2], in data set [3], in data set [4] and in data set [5] was 90 to 100% each time. For the same compound, in data set [1], the LogP worked out at 3.55. This compound registered a chromatographic logP in data set [1] of 3.59.

With `CSc1ccc(Oc2ccc(C3(Cn4cncn4)OCCO3)c(C(F)(F)F)n2)cc1` [I.20], the LogP in data set [1] is 3.05 ^[a].

Regarding `FC(F)(F)Oc1ccc(Oc2ccc(C3(Cn4cncn4)OCCO3)c(C(F)(F)F)n2)cc1` [I.22], the LogP in data set [1] is 3.46 ^[a].

As for `CCC1COC(Cn2cncn2)(c2ccc(Oc3ccc(OC(F)(F)F)cc3)nc2C(F)(F)F)O1` (stereo not drawn) [I.24], in data set [1], the LogP is 4.09 ^[a].

On to `Cc1ccc(Oc2ccc(C3(Cn4cncn4)OCCO3)c(C(F)(F)F)n2)cc1` [I.25], for which, in data set [1], the LogP was 3.21 ^[a].

Compound `CC1(c2ccc(Oc3ccc(Cl)cc3)nc2C(F)(F)F)OCCO1` [XV.01, 6-(4-chlorophenoxy)-3-(2-methyl-1,3-dioxolan-2-yl)-2-(trifluoromethyl)pyridine] yielded a chromatographic logP in data set [1] of 4.44.

As to `Clc1ccc(Oc2cc(Cl)c(C3(Cn4cncn4)OCCO3)cn2)cc1` [drawing 80, reference compound], the Efficacy in % in data set [6] (rate of application 100 ppm) was 50%; in data set [6] (rate of application 500 ppm) it was 80%.

Take `Clc1ccc(Oc2cc(Cl)c(C3(Cn4cncn4)OCCO3)cn2)cc1` [drawing 85, reference compound]: the values for the Efficacy in % in data set [7] (rate of application 10 ppm) and in data set [7] (rate of application 100 ppm) were 14% and 100%, respectively.
